Reference: ChEMBL document CHEMBL4825775, “Substituted 2,3-Benzodiazepines Derivatives as Bromodomain BRD4 Inhibitors” (ACS Med Chem Lett, 2021)

Experiments:
[1] = molecular target: T1, Bromodomain-containing protein 4 (Homo sapiens, UniProt O60885); assay: Inhibition of recombinant human His-tagged BRD4 BD2 using biotin-labelled histone H4 acetylated peptide as substrate by TR-FRET assay
[2] = molecular target: T1, Bromodomain-containing protein 4; assay: Inhibition of recombinant human His-tagged BRD4 BD1 using biotin-labelled histone H4 acetylated peptide as substrate by TR-FRET assay

Q: How did the IC50 [1] turn out when CNC(=O)N1N=C(c2ccc(N3CCN(C(=O)COCCOCCOCCOCC(=O)Nc4cccc5c4C(=O)N(C4CCC(=O)NC4=O)C5=O)CC3)cc2)c2cc(OC)c(OC)cc2C[C@@H]1C (stereo partly drawn) was run?
A: Its IC50 is 78.4 nM.

Q: What about the IC50 [2] of the same compound?
A: Its IC50 is 18.6 nM.

Q: Which results are given for CNC(=O)N1N=C(c2ccc(N3CCN(C(=O)CCOCCOCCOCCNc4ccc5c(c4)C(=O)N(C4CCC(=O)NC4=O)C5=O)CC3)cc2)c2cc(OC)c(OC)cc2C[C@@H]1C (stereo partly drawn)?
A: IC50 [1]: 166 nM; IC50 [2]: 19.3 nM

Q: CNC(=O)N1N=C(c2ccc(N3CCN(C(=O)COCCOCCOCC(=O)Nc4cccc5c4C(=O)N(C4CCC(=O)NC4=O)C5=O)CC3)cc2)c2cc(OC)c(OC)cc2C[C@@H]1C (stereo partly drawn) was tested. Which IC50 [1] did it give?
A: The IC50 was 150 nM.

Q: What about the IC50 [2] of the same compound?
A: Its IC50 is 14.9 nM.

Q: Which results are given for CNC(=O)N1N=C(c2ccc(C(=O)NCCCCNC(=O)COc3cccc4c3C(=O)N(C3CCC(=O)NC3=O)C4=O)cc2)c2cc(OC)c(OC)cc2C[C@@H]1C (stereo partly drawn)?
A: IC50 [1]: 136 nM; IC50 [2]: 24.9 nM
